# How the values were obtained:
# [1] = tested on: Liver; test: Metabolic stability in mouse liver microsomes per mg of protein at 3 uM after 10 mins; type: ADME, Microsome
# [2] = AUC (0 to 4 hrs) in mouse at 50 mg/kg, po; type: ADME, organism-based; parameters: time < 4 hr, dose 50 mg/kg, route oral; conditions: plasma
# [3] = tested on: Liver microsomes; test: Metabolic stability in human liver microsomes per mg of protein at 3 uM after 10 mins; type: ADME, Microsome
# [4] = Tmax in mouse at 50 mg/kg, po; type: ADME, organism-based; parameters: dose 50 mg/kg, route oral; conditions: in vivo
# [5] = Cmax in mouse at 50 mg/kg, po; type: ADME, organism-based; parameters: dose 50 mg/kg, route oral; conditions: in vivo
Stability [1] [nmol/min/mg],AUC(0-t) at 4 h [2] [µM·h],Stability [3] [nmol/min/mg],Tmax [4] [h],Cmax [5] [µM],SMILES
0.007,53.2,0.023,4,15,CC(C)c1c(-c2nnc(OC3CCNCC3)o2)cn2ncnc(Nc3cc(C(=O)NC4CC4)c(F)cc3F)c12
0.02,21.7,0.098,1,8,CC(C)c1c(-c2nnc(NCCCN(C)C)o2)cn2ncnc(Nc3cc(C(=O)NC4CC4)c(F)cc3F)c12
0,0.2,0.012,0.5,0.1,CC(C)c1c(-c2nnc(NCCCCN)o2)cn2ncnc(Nc3cc(C(=O)NC4CC4)c(F)cc3F)c12
